{"source": "paper PMC5760527", "about": "“Connexin 43 Hemichannel as a Novel Mediator of Sterile and Infectious Inflammatory Diseases” (Scientific Reports, 2018)", "key": {"[1]": {"tested_on": "Cx43 GJ and hemichannel activities", "conditions": "cited from earlier work", "excerpt": "The establishment of HMGB1 as a critical mediator of various inflammatory diseases has prompted an on-going search for endogenous and exogenous modulators of HMGB1 secretion. […] We thus evaluated the alteration of macrophage hemichannel activities in the absence or presence of Cx43 mimetic peptides previously shown to be capable of blocking Cx43 hemichannels. […] Because Cx43 GJ and hemichannels often co-exist in plasma membranes, a definitive elucidation of the functions of Cx43 GJ or hemichannels has been quite challenging. First, genetic deletion would eliminate both channels. Secondly, these two types of Cx channels are susceptible to a similar array of chemical blockers. Latel ..."}, "[2]": {"tested_on": "HMGB1 secretion", "conditions": "cited from earlier work", "excerpt": "(§1) The establishment of HMGB1 as a critical mediator of various inflammatory diseases has prompted an on-going search for endogenous and exogenous modulators of HMGB1 secretion."}, "[3]": {"tested_on": "PKR phosphorylation", "conditions": "cited from earlier work", "excerpt": "as §1"}, "[4]": {"target": "T1, Cx43 EL1 peptide (Homo sapiens, UniProt P17302)", "T1 construct": "synthetic full-length Cx43 EL1 or EL2 peptide as judged by the Surface Plasmon Resonance Analysis", "T1 sequence (P17302 45-76 limits assumed)": "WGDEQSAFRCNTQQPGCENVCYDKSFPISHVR", "assay": "Surface Plasmon Resonance, Cx43 EL1 peptide", "assay_type": "binding", "conditions": "Cx43 EL1 peptide"}, "[5]": {"tested_on": "Balb/c mice, polymicrobial sepsis (CLP)", "assay": "CLP-induced sepsis survival", "assay_type": "in vivo", "conditions": "i.p., +6, +18 and +36 h post CLP, two weeks; for animal survival (in words): CLP, Balb/c mice; for survivors: saline 50%", "excerpt": "This study was approved and performed in accordance with the guidelines of the Institutional Animal Care and Use Committee of the Feinstein Institute for Medical Research, Manhasset, New York, USA (Animal Protocol #2008-033, Approval date: September 10, 2014). To evaluate the effect of various Cx43 mimetic peptides on sepsis lethality, a clinically relevant animal model of sepsis induced by cecal ligation and puncture (CLP) was employed. Briefly, the cecum of Balb/c mice was ligated at about 5 mm from the cecal tip, and then punctured once with a 22-gauge needle. GAP26, TAT-GAP19 or P5 peptides were administered intraperitoneally into mice at indicated doses and time points, and animal survival rates were monitored for up to 2 wks. The Kaplan-Meier method was used to compare the differences in mortality rates between groups."}, "[6]": {"tested_on": "macrophage Cx43 hemichannel activities, RAW 264.7 cells", "assay": "Lucifer Yellow dye uptake, hemichannel permeability, calcium-depleted", "assay_type": "cell-based, murine", "conditions": "LPS 0.5 μg/ml, 16 h, LY 15 min, P < 0.05 versus +LPS", "excerpt": "Because connexon is the structural unit for both hemichannel (1 connexon) and gap junction (2 connexons from opposing cells), which are both permeable to similar molecular weight molecules, such as the Lucifer yellow (LY). Thus, the LY dye uptake could be used to determine the channel permeability of both hemichannel (as indicated by the rate of LY entry into the cells) and gap junction channels (as judged by the distance of intercellular LY diffusion). The LY dye uptake assay relied on the ability of this dye present in the extracellular milieu to cross the plasma membrane and became concentrated inside of the cell, which could be quantified by fluorescence microscopy. To determine the effects of Cx43 mimetic peptides on hemichannel permeability, RAW 264.7 cells were subjected to LPS stimulation (0.5 µg/ml, 16 h) before replacing the medium with fresh DMEM containing various Cx43 mimetic peptides, GAP26 (100 µM), TAT-GAP19 (200 µM) or P5 (20 µM). Following a brief incubation (15 min), EGTA (1 mM) was added to deplete free calcium prior to the addition of LY dye (1%). Fifteen min later, cells were fixed with 2% paraformaldehyde, and the number of LY-positive cells was counted. The ratio of LY-positive cells vs. total cell counts (DAPI staining) was used as the measurement of hemichannel permeability."}}, "note": "pKd: −log10 of the molar value. Where no end group is shown, it is not given here.", "data": [{"compound": "CC1(C)[C@@H](OC(=O)CCC(=O)O)CC[C@]2(C)[C@H]3C(=O)C=C4[C@@H]5C[C@@](C)(C(=O)O)CC[C@]5(C)CC[C@@]4(C)[C@]3(C)CC[C@@H]12", "note": "[carbenoxolone]", "values": [{"measurement": "blocking of Cx43 GJ and hemichannel activities", "setting": "[1]; no reference given", "result": "blocking Cx43 GJ and hemichannel activities"}, {"measurement": "PKR-mediated HMGB1 secretion", "setting": "[2]", "result": "effectively prevented"}, {"measurement": "endotoxin-induced PKR phosphorylation", "setting": "[3]", "result": "effectively prevented"}]}, {"compound": "QPGCEN [P4]", "values": [{"measurement": "pKd", "setting": "[4]", "result": 4.70}]}, {"compound": "VCYDKSFPISHVR [GAP26, Cx43 mimetic peptide GAP26 (…), first extracellular loop]", "values": [{"measurement": "animal survival (in words)", "setting": "[5]", "result": "reproducibly increased animal survival rates"}, {"measurement": "effect on endotoxin-induced hemichannel activities (LY dye uptake)", "setting": "[6]; GAP26 100 μM", "result": "significant impairment of the endotoxin-induced elevation of hemichannel activities"}, {"measurement": "interruption of GJ formation", "setting": "[1]; after prolonged application, no reference given", "result": "interruption of GJ formation after prolonged application"}, {"measurement": "inhibition of Cx43 hemichannel activities or gap junction formation", "setting": "[1]", "result": "inhibiting Cx43 hemichannel activities or gap junction formation"}]}, {"compound": "YGRKKRRQRRRK-QIEIKKFK [TAT-GAP19]", "values": [{"measurement": "survivors", "setting": "[5]; 15 mg/kg", "result": 60, "unit": "%"}, {"measurement": "survivors", "setting": "[5]; 120 mg/kg", "result": 20, "unit": "%"}, {"measurement": "animal survival (in words)", "setting": "[5]", "result": "decreased animal survival particularly when given at a comparable higher dose"}, {"measurement": "effect on LY dye uptake (hemichannel activities)", "setting": "[6]; TAT-GAP19 200 μM", "result": "elevated LY dye uptake"}]}]}
